Measurements as given in patent US10590086B2, “Pharmaceutical compound” (IOmet Pharma Ltd., priority 2014, dated 2020).

Legend:
[1] = biological target: T1, TDO (Homo sapiens, UniProt P48775); experiment: hTDO biochemical coupled assay; conditions: 330 μM L-tryptophan, read-out: hTDO biochemical assay pIC50 (converted)
[2] = biological target: T2, IDO (Homo sapiens, UniProt P14902); experiment: hIDO biochemical coupled assay; conditions: 45 μM L-tryptophan, read-out: hIDO biochemical assay pIC50 (converted)
T2 sequence (P14902 whole entry): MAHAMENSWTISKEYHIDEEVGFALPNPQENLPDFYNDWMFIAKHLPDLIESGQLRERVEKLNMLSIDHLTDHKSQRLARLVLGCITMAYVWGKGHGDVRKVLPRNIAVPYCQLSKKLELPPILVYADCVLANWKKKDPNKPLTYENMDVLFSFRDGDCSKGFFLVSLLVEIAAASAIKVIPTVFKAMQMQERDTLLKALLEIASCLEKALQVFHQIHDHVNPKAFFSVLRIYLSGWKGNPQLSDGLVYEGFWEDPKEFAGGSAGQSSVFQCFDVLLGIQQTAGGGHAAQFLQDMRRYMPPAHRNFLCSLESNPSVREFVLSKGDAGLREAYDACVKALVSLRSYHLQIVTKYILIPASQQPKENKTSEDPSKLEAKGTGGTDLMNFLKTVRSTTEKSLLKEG

[3] = biological target: T1, TDO; experiment: A172 kynurenine cell-based assay; design: This assay utilised cancer cells which expressed either TDO or IDO; endogenous in cells; host or cells: A172 (human glioblastoma); conditions: A172 human glioblastoma cells, 48 hours, read-out: A172 Kynurenine cell based assay pIC50 (converted)
Method in brief: (§1)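 A172 glioblastoma cells (TDO; 30,000/well) and SKOV3 ovarian cells (IDO induced with 500 ng/ml IFN-γ; 40,000/well) were grown in phenol red-free RPMI with 10% FCS, 2 mM L-glutamine and 500 μM L-tryptophan. They were incubated ±compound for 48 hours at 37 °C. Supernatant kynurenine was read with Ehrlich's reagent (5 min) at […] absorbance.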

[4] = biological target: T2, IDO; experiment: SKOV3 kynurenine cell-based assay (IDO induced by IFN-γ); design: IDO expression was induced in the SKOV3 cells by the addition of 500 ng/ml IFN-γ; endogenous in cells; host or cells: SKOV3 (human ovarian adenocarcinoma), induced with IFN-γ; conditions: 48 hours, read-out: SKOV3 Kynurenine cell based assay pIC50 (converted)
Method in brief: as §1

[5] = SKOV3 human ovarian adenocarcinoma cells, 500 ng/ml IFN-γ, 500 μM L-tryptophan
[6] = SKOV3 cells, IDO induced by 500 ng/ml IFN-γ

T1 sequence (P48775 whole entry): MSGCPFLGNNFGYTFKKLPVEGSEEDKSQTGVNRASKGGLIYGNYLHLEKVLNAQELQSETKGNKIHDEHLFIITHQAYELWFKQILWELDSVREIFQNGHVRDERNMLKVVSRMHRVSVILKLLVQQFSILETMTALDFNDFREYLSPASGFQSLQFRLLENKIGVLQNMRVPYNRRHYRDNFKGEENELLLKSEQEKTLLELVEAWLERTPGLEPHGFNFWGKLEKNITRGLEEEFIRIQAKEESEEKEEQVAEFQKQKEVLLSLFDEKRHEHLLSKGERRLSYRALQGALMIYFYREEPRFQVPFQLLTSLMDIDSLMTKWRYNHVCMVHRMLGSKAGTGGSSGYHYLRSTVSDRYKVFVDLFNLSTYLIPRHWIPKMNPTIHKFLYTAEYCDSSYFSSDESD

| IC50 ([1]; 17 minutes, room temperature) | IC50 ([2]; 17 minutes, room temperature) | IC50 ([3]; 500 μM L-tryptophan) | IC50 [4, 5] | IC50 [1] | IC50 [2] | IC50 [3] | IC50 [4, 6] | Structure (SMILES) |
| --- | --- | --- | --- | --- | --- | --- | --- | --- |
| < 3.16 µM | > 100 µM | < 3.16 µM | 32.4 to 100 µM |  |  |  |  | OC(c1ccccc1)c1cc(Cl)cc2[nH]ncc12 (centres unmarked) [Compound 271] |
| < 3.16 µM | > 100 µM | < 3.16 µM | > 100 µM |  |  |  |  | OC(c1cc(Cl)cc2[nH]ncc12)C1CCOCC1 (centres unmarked) [Compound 299] |
| < 3.16 µM | 3.24 to 31.6 µM | < 3.16 µM | < 3.16 µM |  |  |  |  | CS(=O)(=O)c1ccc(-c2cc(Cl)cc3[nH]ncc23)c(F)c1 [Compound 297] |
| < 3.16 µM | 3.24 to 31.6 µM | < 3.16 µM | 3.24 to 31.6 µM |  |  |  |  | Clc1cc(N2CC=CCC2)c2cn[nH]c2c1 [Compound 345] |
| < 3.16 µM | 32.4 to 100 µM | < 3.16 µM | < 3.16 µM |  |  |  |  | CC(=O)N1CC2(C1)CN(c1cc(Cl)cc3[nH]ncc13)C2 [Compound 402] |
| < 3.16 µM | < 3.16 µM | < 3.16 µM | 3.24 to 31.6 µM |  |  |  |  | CC1(C)CN(c2cc(C#N)cc3[nH]ncc23)CCN1S(C)(=O)=O [Compound 334] |
| < 3.16 µM | > 100 µM | 3.24 to 31.6 µM | 3.24 to 31.6 µM |  |  |  |  | O=C1Nc2ccccc2C12CCN(c1cc(Cl)cc3[nH]ncc13)CC2 [Compound 371] |
| < 3.16 µM | < 3.16 µM | < 3.16 µM | < 3.16 µM |  |  |  |  | Cn1ccnc1CN1C(=O)NC2(CCN(c3cc(Cl)cc4[nH]ncc34)CC2)C1=O [Compound 408] |
| < 3.16 µM | < 3.16 µM | < 3.16 µM | 3.24 to 31.6 µM |  |  |  |  | CC(=O)N(C)C1CCN(c2cc(Cl)cc3[nH]ncc23)CC1 [Compound 251] |
| < 3.16 µM | < 3.16 µM | < 3.16 µM | < 3.16 µM |  |  |  |  | O=C1NC(=O)C2(CCN(c3cc(Cl)cc4[nH]ncc34)CC2)N1 [Compound 137] |
| > 100 µM | > 100 µM | 3.24 to 31.6 µM | 3.24 to 31.6 µM |  |  |  |  | CC1(C)CN(c2cc(Cl)cc3c(N)n[nH]c23)CCN1S(C)(=O)=O [Compound 321] |
| 3.24 to 31.6 µM | > 100 µM | 3.24 to 31.6 µM | 32.4 to 100 µM |  |  |  |  | CN(CC1CCCN(c2cc(Cl)cc3[nH]ncc23)C1)S(C)(=O)=O (centres unmarked) [Compound 285] |
| < 3.16 µM | < 3.16 µM | < 3.16 µM | < 3.16 µM |  |  |  |  | CC(=O)N(C)C1CCN(c2cc(Cl)cc3[nH]ncc23)CC1(C)C (centres unmarked) [Compound 450] |
| 3.24 to 31.6 µM | > 100 µM | 3.24 to 31.6 µM | 3.24 to 31.6 µM |  |  |  |  | CS(=O)(=O)c1ccc(Oc2cc(Cl)cc3[nH]ncc23)cc1 [Compound 368] |
| < 3.16 µM | 32.4 to 100 µM | < 3.16 µM | 3.24 to 31.6 µM |  |  |  |  | CS(=O)(=O)N1CC2(CCN(c3cc(Cl)cc4[nH]ncc34)CC2)C1 [Compound 351] |
| < 3.16 µM | 32.4 to 100 µM | < 3.16 µM | 3.24 to 31.6 µM |  |  |  |  | CC(=O)NC1CCN(c2cc(Cl)cc3[nH]ncc23)CC1 [Compound 250] |
| > 100 µM | > 100 µM | 3.24 to 31.6 µM | > 100 µM |  |  |  |  | CN(c1cc(C2CCN(S(C)(=O)=O)CC2)c2cn[nH]c2c1)S(C)(=O)=O [Compound 338] |
| < 3.16 µM | 32.4 to 100 µM | < 3.16 µM | > 100 µM |  |  |  |  | Clc1cc(N2CCC(N3CCOCC3)CC2)c2cn[nH]c2c1 [Compound 451] |
| < 3.16 µM | 3.24 to 31.6 µM | < 3.16 µM | < 3.16 µM |  |  |  |  | CS(=O)(=O)Nc1ccc(C2CCN(c3cc(Cl)cc4[nH]ncc34)CC2)cc1 [Compound 437] |
| 3.24 to 31.6 µM | > 100 µM | < 3.16 µM | 32.4 to 100 µM |  |  |  |  | CS(=O)(=O)NCCn1cc(-c2cc(Cl)cc3[nH]ncc23)cn1 [Compound 373] |
| 3.24 to 31.6 µM | > 100 µM | 3.24 to 31.6 µM | 3.24 to 31.6 µM |  |  |  |  | Clc1cc(N2CCOCC2)c2cn[nH]c2c1 [Compound 327] |

| IC50 ([1]; 17 minutes, room temperature) | IC50 ([2]; 17 minutes, room temperature) | IC50 ([3]; 500 μM L-tryptophan) | IC50 [4, 5] | IC50 [1] | IC50 [2] | IC50 [3] | IC50 [4, 6] | Structure (SMILES) |
| --- | --- | --- | --- | --- | --- | --- | --- | --- |
| 32.4 to 100 µM | > 100 µM | 32.4 to 100 µM | 32.4 to 100 µM |  |  |  |  | CN(C)C(=O)C1CCCN(c2cc(Cl)cc3[nH]ncc23)C1 (centres unmarked) [Compound 209] |
| < 3.16 µM | 3.24 to 31.6 µM | < 3.16 µM | 3.24 to 31.6 µM |  |  |  |  | Cn1ncc2c1CCN(c1cc(Cl)cc3[nH]ncc13)C2 [Compound 369] |
| < 3.16 µM | < 3.16 µM | 3.24 to 31.6 µM | > 100 µM |  |  |  |  | Nc1ccnn1C1CCN(c2cc(Cl)cc3[nH]ncc23)CC1 [Compound 430] |
| < 3.16 µM | < 3.16 µM | < 3.16 µM | < 3.16 µM | 0.24 µM | 0.347 µM | 0.0759 µM | 0.145 µM | CC1(C)CN(c2cc(Cl)cc3[nH]ncc23)CCC12NC(=O)NC2=O (centres unmarked) [Compound 424, 8-(6-chloro-1H-indazol-4-yl)-6,6-dimethyl-1,3,8-triazaspiro[4.5]decane-2,4-dione] |
| < 3.16 µM | 3.24 to 31.6 µM | < 3.16 µM | 3.24 to 31.6 µM |  |  |  |  | CS(=O)(=O)N1CCC(c2cc(C(F)F)cc3[nH]ncc23)CC1 [Compound 387] |
| 3.24 to 31.6 µM | > 100 µM | < 3.16 µM | 3.24 to 31.6 µM |  |  |  |  | Cn1cc(-c2cc(Cl)cc3[nH]ncc23)cn1 [Compound 366] |
| > 100 µM | > 100 µM | > 100 µM | 32.4 to 100 µM |  |  |  |  | CC(=O)N1CCC(CNC(=O)c2cc(Cl)cc3[nH]ncc23)CC1 [Compound 295] |
| < 3.16 µM | 32.4 to 100 µM | < 3.16 µM | 3.24 to 31.6 µM |  |  |  |  | CC(=O)N1CCN(c2cccc3[nH]ncc23)CC1(C)C [Compound 25] |
| < 3.16 µM | > 100 µM | < 3.16 µM | > 100 µM |  |  |  |  | O[C@H]1CCCC[C@@H]1c1cc(Cl)cc2[nH]ncc12 [Compound 418] |
| < 3.16 µM | > 100 µM | 3.24 to 31.6 µM | 3.24 to 31.6 µM |  |  |  |  | CC(=O)N(C)CC1CCCN(c2cc(Cl)cc3[nH]ncc23)C1 (centres unmarked) [Compound 286] |
| < 3.16 µM | 3.24 to 31.6 µM | < 3.16 µM | > 100 µM |  |  |  |  | CS(=O)(=O)N1CCN(C2CCN(c3cc(Cl)cc4[nH]ncc34)CC2)CC1 [Compound 453] |
| < 3.16 µM | > 100 µM | < 3.16 µM | < 3.16 µM |  |  |  |  | CC(=O)N1CCC2(CC1)CN(c1cc(Cl)cc3[nH]ncc13)C2 [Compound 452] |
| > 100 µM | > 100 µM | > 100 µM | 3.24 to 31.6 µM |  |  |  |  | CC(=O)N(C)c1cc(C2CCN(S(C)(=O)=O)CC2)c2cn[nH]c2c1 [Compound 337] |
| < 3.16 µM | < 3.16 µM | < 3.16 µM | 3.24 to 31.6 µM | 0.302 µM | 2.34 µM | 0.0832 µM | 8.32 µM | CS(=O)(=O)N1CCC(c2cc(Cl)cc3[nH]ncc23)CC1 [Compound 40, 6-chloro-4-(1-(methylsulfonyl)piperidin-4-yl)-1H-indazole] |
| < 3.16 µM | 32.4 to 100 µM | < 3.16 µM | 32.4 to 100 µM |  |  |  |  | OC(CC1CCOCC1)c1cc(Cl)cc2[nH]ncc12 (centres unmarked) [Compound 289] |
| < 3.16 µM | 3.24 to 31.6 µM | < 3.16 µM | 32.4 to 100 µM |  |  |  |  | CS(=O)(=O)NC1CCN(c2cc(Cl)cc3[nH]ncc23)CC1 [Compound 97] |
| < 3.16 µM | 3.24 to 31.6 µM | < 3.16 µM | < 3.16 µM |  |  |  |  | CC1(C)CN(c2cc(C(F)(F)F)cc3[nH]ncc23)CCN1S(C)(=O)=O [Compound 78] |
| < 3.16 µM | > 100 µM | < 3.16 µM | > 100 µM |  |  |  |  | Cc1nc2c(o1)CN(c1cc(Cl)cc3[nH]ncc13)CC2(C)C [Compound 425] |
| 3.24 to 31.6 µM | > 100 µM | < 3.16 µM | 3.24 to 31.6 µM |  |  |  |  | CN(C)C(=O)c1ccc(-c2cc(Cl)cc3[nH]ncc23)cc1 [Compound 255] |
| < 3.16 µM | 3.24 to 31.6 µM | < 3.16 µM | 3.24 to 31.6 µM |  |  |  |  | O=C1NCC2(CCN(c3cc(Cl)cc4[nH]ncc34)CC2)O1 [Compound 344] |
| 3.24 to 31.6 µM | > 100 µM | 3.24 to 31.6 µM | > 100 µM |  |  |  |  | CS(=O)(=O)N1CCC(c2cccc3[nH]ncc23)CC1 [Compound 12] |

| Structure (SMILES) | IC50 ([1]; 17 minutes, room temperature) | IC50 ([2]; 17 minutes, room temperature) | IC50 ([3]; 500 μM L-tryptophan) | IC50 [4, 5] | IC50 [1] | IC50 [2] | IC50 [3] | IC50 [4, 6] |
| --- | --- | --- | --- | --- | --- | --- | --- | --- |
| O=C1N[C@H]2CC[C@@H]1CN(c1cc(Br)cc3[nH]ncc13)C2 [Compound 438] | < 3.16 µM | 3.24 to 31.6 µM | < 3.16 µM | > 100 µM |  |  |  |  |
| Clc1cc(N2CCc3ccncc3C2)c2cn[nH]c2c1 [Compound 346] | < 3.16 µM | > 100 µM | < 3.16 µM | 3.24 to 31.6 µM |  |  |  |  |
| CN1C(=O)[C@@H]2CC[C@H]1CN(c1cc(C(F)(F)F)cc3[nH]ncc13)C2 [Compound 447] | < 3.16 µM | 3.24 to 31.6 µM | < 3.16 µM | > 100 µM |  |  |  |  |
